Values after ≈ are worked out from the molar mass of the structure shown.
Tests used:
[1] = Solubility in lipofullerene base, confirmed by a turbidometer
Protocol: Each of the above mixtures were sonicated for 30 seconds followed by vortexing for 12 hours in the dark.

Water solubility = assay type: physicochemical; conditions: read-out: Water solublity
AsPC-1 cells = experiment: Xenograft studies; assay type: in vivo, nude mice; conditions: oral gavage, 1 mg of triptolide/1 mL of C60-olive oil base, ~28 days
Protocol: AsPC-1 cells were purchased from American Type Culture Collection (ATCC). Cells were harvested from sub-confluent cultures after brief exposure to 0.25% trypsin and 0.2% EDTA. The cells were washed once in serum-free medium and re-suspended thereafter in PBS. Only suspensions consisting of single cells with >90% viability were used for the injections. Mice were injected with 1.5×10^6 cells sub-cutaneously (S.C) on the right side of hind leg of each mouse using a 23-gauge needle. After tumor transplant, the mice were observed daily for one week, before randomly assigning them to the treatment groups (n=5). The animals thereafter received triptolide (1 mg of triptolide/1 mL of C60-olive oil base) by oral gavage starting on day 15 or on tumor volume reaching ˜40-70 mm^3. The treatment was continued until ˜28 days from first dose. […] Tumor size was measured once a week. At the end of the experimental period, the animals were euthanized.

Compound | solubility (Water solubility) [µg/mL] | Fold solubility ([1]; 12 h) | further results
CC[C@@]1(O)C(=O)OCc2c1cc1n(c2=O)Cc2cc3ccccc3nc2-1 [camptothecin] | 107 (≈ 307 µM) |  | Fold solubility ([1]; lipofullerene base compared to solubility in water): 5
CC(=O)O[C@@]12CO[C@@H]1C[C@H](O)[C@@]1(C)C(=O)[C@H](O)C3=C(C)[C@@H](OC(=O)[C@H](O)[C@@H](NC(=O)OC(C)(C)C)c4ccccc4)C[C@@](O)([C@@H](OC(=O)c4ccccc4)[C@H]21)C3(C)C [docetaxel] |  | >100 | 
C#Cc1cccc(Nc2ncnc3cc(OCCOC)c(OCCOC)cc23)c1 [erlotinib] | 400 (≈ 1020 µM) | 3 | 
CC(=O)O[C@H]1C(=O)[C@@]2(C)[C@H]([C@H](OC(=O)c3ccccc3)[C@]3(O)C[C@H](OC(=O)[C@H](O)[C@@H](NC(=O)c4ccccc4)c4ccccc4)C(C)=C1C3(C)C)[C@]1(OC(C)=O)CO[C@@H]1C[C@@H]2O [paclitaxel] | 5.56 (≈ 6.51 µM) | 90 | 
CC(C)[C@]12O[C@H]1[C@@H]1O[C@]13[C@]1(O[C@H]1C[C@H]1C4=C(CC[C@@]13C)C(=O)OC4)[C@@H]2O [triptolide] |  |  | amount of triptolide dissolved in lipofullerene base ([1]; lipofullerene base of Example 1, nitrogen gas atmosphere, stirred for 2 hours): About 2 gm/1000 mL; tumor size (AsPC-1 cells; 50 μg/kg): tumor regression was observed; tumor size (AsPC-1 cells; 100 μg/kg): tumor regression was observed; tumor size (AsPC-1 cells; 250 μg/kg): tumor regression was observed
CC[C@]1(O)C[C@H]2CN(CCc3c([nH]c4ccccc34)[C@@](C(=O)OC)(c3cc4c(cc3OC)N(C=O)[C@H]3[C@@](O)(C(=O)OC)[C@H](OC(C)=O)[C@]5(CC)C=CCN6CC[C@]43[C@@H]65)C2)C1 [vincristine] | 30 (≈ 36.4 µM) | 17 | 

Source: patent publication US10342797B2, “Solubility of therapeutic agents” (LivePet LLC, priority 2016, dated 2019)
